Results from patent publication US6503948B2, “Method for prevention or treatment of acute allograft rejection and a pharmaceutical composition therefor” (Southern Research Institute, priority 1998, dated 2003).
Where “and” joins values, the source holds several entries; their conditions need not be identical. Identical values can stand only once.

Test system: acute allograft rejection (heart graft, Fischer donor to Long-Evans recipient)
Assay: Intra abdominal heterotopic cardiografting in rats with donor pretreatment; graft survival
Assay type: in vivo, rat
Method: 1-(2-chloroethyl)-1-nitroso-3-(3-methylcyclohexyl)urea was administered 5 mg per donor rat at a dosage of 20 mg/kg 24 hours prior to removal of heart tissue for transplantation. Administration of the compound above results in survival of 25 days, 27 days, 30 days, 32 days, and greater than 60 days.
According to this experiment, the donor rats were Fischer strain and the recipients were Long-Evans strains. These strains are mismatched at the major histocompatibility antigenic site (Ag locus). In the experiment, intra abdominal heterotopic cardiografting was performed using a modification of techniques described by Ono and Lindsey, Improved Technique of Heart Transplantation In Rats, Journal of Thoracic and Cardiovascular Surgery, 57: 225 (1969) and Lee et al., Heterotopic Heart and Lung Transplantation in the Rat, American Journal of Pathology, 59: 279 (1970), the entire contents of the disclosures of both of which are hereby incorporated by reference.
According to this experiment, a total dose of 20 milligrams per kilogram of the above compound was administered to donor rats 24 hours prior to transplantation. According to this dosage regimen, survival was prolonged from 10 to 25-60 days. Survival for 60 days indicated permanent survival, in other words, while typically surviving 10 days, the rats lived for 25-60 days, with the rats living to 60 days having a permanent survival.

CC1CCCC(NC(=O)N(CCCl)N=O)C1 (stereo not shown) [1-(2-chloroethyl)-1-nitroso-3-(3-methylcyclohexyl)urea]
survival (5 mg per donor rat, 20 mg/kg, given to donor 24 hours prior to removal of heart tissue, Fischer donors, Long-Evans recipients, typical survival 10 days): 25 days and 27 days and 30 days and 32 days and greater than 60 days and 25-60 days
median survival (considering dying rats only) versus the compound alone (donors treated with 20 mg/kg compound combined with 100 mg/kg methotrexate): increase in median survival
microscopic evaluation of hearts (rats surviving for 60 days, sacrificed after two years, donor dose 20 mg/kg): normal hearts
survival (recipients also treated with a single small dose of Cyclosporine A): increase in survival
